Patent publication US7858655B2, “Drug preparation comprising α-lipoic acid, ambroxol and/or inhibitors of the angiotensin-converting enzyme (ACE) and its use for the treatment of neurodegenerative diseases” (Keyneurotek Pharmaceuticals AG, priority 2004, dated 2010)
Counter-ions that a name gives are not always drawn.

Tested on: neuronal cells in organotypical hippocampal tissue cuts
Test: transient oxygen/glucose deprivation (OGD) of organotypical hippocampal tissue cuts, neuronal damage
Assay type: cell-based, rats
Conditions: for neuronal damage, % of the damaged surface area, Median / neuronal damage, % of the damaged surface area, Average Value: after standard OGD with the substance applied, cocktail = α-lipoic acid 10 μg/ml, ambroxol 10 μM, Enalapril 20 μg/ml; for neuronal damage, % of the damaged surface area, Average Value: Control OGD (vehicle) 11.70-13.98; for neuroprotective effect, reduction of the neuronal damage after OGD (in words): after transient OGD, versus standard damage
From the text: For examining the neuroprotective effect of the thiol-reactive substances, the procedure of a transient ischemia for organotypical hippocampal tissue cuts was used, which procedure was standardized in our laboratory. By such a procedure, there are obtained three-dimensional cultivated explantates having a high prediction value for subsequent clinical experiments. In those tissue cultures containing neuronal as well as non-neuronal cells, highly complex intercellular connections are maintained largely. They are of extraordinary importance for the functionality of the whole CNS. The cerebral tissue cultures are exposed to a degenerative event which results into a death of neuronal cells in analogy to clinical situations. The tissue cuts (375 μm) were prepared subsequently from the hippocampus of rats (P7). The cultivation of those cut cultures was effected on membrane inserts having a pore size of 0.02 μm. After 10 to 12 days of cultivation (37° C. in an incubator; 3.3% CO2; 98% relative air humidity), the restructuration processes within the tissue cultures were finished, and a clinical relevant neurodegenerative event was simulated on the tissue cuts by means of a transient oxygen/glucose deprivation. The effect of the substanc(es) was measured in the form of a standard damage change (vehicle application). […] There was quantified the neuronal damage after a standard OGD with and without the application of the cocktail as well as the damage by the application of the cocktail per se (optional toxicity of the substance). The damage is expressed in % of the damaged surface area. In order to obtain such figures, in each tissue cut the whole surface area was compared with the damaged surface area. […] The experiments are based on the protocol described in Example 2. In the course of the experiments shown in FIGS. […], the protective effect of the cocktail was compared with the standard damage after OGD and with the effect resulting from an application of the single substances. […] Tables […] show the relevant statistical parameters.

Question: For Nc1c(Br)cc(Br)cc1CNC1CCC(O)CC1 (stereo not drawn) [Ambroxol, trans-4-(2-amino-3,5-dibromobenzylamino-) cyclohexane hydrochloride], which “neuronal damage, % of the damaged surface area, Median” value (“neuronal damage, % … Median” for short) is on record?
Answer: 8.32%

Question: And the “neuronal damage, % of the damaged surface area, Average Value” (from here on “neuronal damage, % … Average Value”)?
Answer: 10.79%

Question: What about the “neuroprotective effect, reduction of the neuronal damage after OGD (in words)” value (“neuroprotective effect, reduction” for short) of the same compound?
Answer: neither α-lipoic acid nor ambroxol nor the ACE inhibitor, if applied alone, were capable of reducing the neuronal damage significantly

Question: How did the “neuronal damage, % … Median” value turn out when CCOC(=O)[C@H](CCc1ccccc1)N[C@@H](C)C(=O)N1CCC[C@H]1C(=O)O [Enalapril, 1-{N-[(S)-1-Ethoxycarbonyl-3-phenylpropyl-]L-alanyl-}L-proline] was run?
Answer: 8.70%

Question: What about the “neuronal damage, % … Average Value” of the same compound?
Answer: 11.23%

Question: What about the “neuroprotective effect, reduction” value of the same compound?
Answer: neither α-lipoic acid nor ambroxol nor the ACE inhibitor, if applied alone, were capable of reducing the neuronal damage significantly

Question: How did the “neuronal damage, % … Median” value turn out when O=C(O)CCCC[C@@H]1CCSS1 [α-Lipoic Acid, (R)-5-(1,2-dithiolane-3-yl-)pentanoic acid] was run?
Answer: 13.54%

Question: And the “neuronal damage, % … Average Value”?
Answer: 14.82%

Question: What about the “neuroprotective effect, reduction” value of the same compound?
Answer: neither α-lipoic acid nor ambroxol nor the ACE inhibitor, if applied alone, were capable of reducing the neuronal damage significantly
